Test results reported in patent US20100068747A1, “Generic Assay for Monitoring Endocytosis” (Evotec Technologies GmbH, priority 2005, published 2010).
“Also recorded” adds a separate entry of the source.

Key:
CHO/ETAR cells [1] = assay: Lectin labeling of fixed cells, CHO/ETAR; format: cell-based; conditions: TRITC-lectin 10 nM and 20 nM
Experimental: Lectin labeling of fixed cells was conducted as follows: To detach confluent cells in order to prepare experiments for internalization studies, cells were always treated with EDTA solution instead of trypsin solution. For all seeding, washing, and labeling steps in 96-well plates a working volume of 100 μl per well was assessed. Cells were seeded out into a 96-well plate at different concentrations. U2OS/ETAR-GFP suspensions were adjusted to yield 2*10^4 cells/well, both of the CHO cell lines must be at 2.5*10^4 cells/well. Cells became confluent after 24 hours of incubation. In the following, they were washed with phosphate buffered saline (PBS) and fixed with 3% PFA for 20 minutes at RT. Then, cells were washed again with PBS and incubated in 10 nM and 20 nM solutions of each TRITC-lectin candidate in PBS, respectively. Again, cells were washed with PBS to remove excess lectin, and wells were refilled with PBS for analysis. For specificity controls, lectin solutions were incubated for 30 minutes prior to the application with an excess of the monosaccharide that represents the respective glyco-epitope.
(§1) The following microscopy and image analysis techniques were employed. When utilizing the epifluorescence microscope magnifications were adjusted according to the purpose of observation, e.g. single cell vs. cell collective. Concerning the filters U-MNU was used for Hoechst, U-MSWB for GFP, and U-N41007 for TRITC detection. Hoechst images were taken at 50 ms exposure time, GFP images at 100 to 200 ms and TRITC images needed 500 to 1000 ms. Overlay images were assembled with AnalySIS and tuned in color intensity to obtain the desired color contrast. Images taken to compare two experimental conditions, e.g. control vs. stimulus, featured identical exposure parameters. If possible, well areas were chosen that reflect similar states of confluence. Utilizing the Opera confocal fluorescence imager, the instrument was calibrated running standard methods for skew cropping (spatial camera alignments) and camera intensity normalization.

CHO/ETAR cells [2] = assay: Lectin labeling of live cells, CHO/ETAR; format: cell-based; conditions: TRITC-lectin, 10 nM at maximum
Experimental: (§2) Lectin labeling of live cells was conducted as follows: Cells were seeded as described above. After 24 hours cells were washed once with PBS and incubated in the incubator for another 2 hours in the respective standard medium without serum supplement to deprive them of serum factor mediated stimuli. This step was termed starvation period. Subsequently, cells were washed gently with PBS and incubated with 37° C. tempered assay medium comprised of Hank's Balanced Salt Solution (HBSS) pH 7.4, containing 20 mM HEPES and 30 mM D-glucose. The plate was left at RT for 30 minutes to slowly level its temperature and, thus, avoid capturing of temperature drop induced membrane dynamics. This period was termed leveling period. Then, assay medium was withdrawn and wells refilled with TRITC-lectin solutions at RT to start cell labeling. Several lectin concentrations in the low nano-molar range were tested. Molar concentrations were calculated from the data provided by Vector Labs. The plate was placed on a rotating shaker at low revolutions for 10 minutes while incubating. The start of the lectin incubation is referred to as assay starting point with t=0 min. After the 10 min incubation period the cells were gently washed with PBS and wells refilled with assay buffer at RT. Instantly thereafter, fluorescence signals were monitored predominately using the epifluorescence microscope.
as §1

CHO/PAR-2 cells = assay: Lectin labeling of live cells, CHO/PAR-2; format: cell-based; conditions: TRITC-lectin, 10 nM at maximum
Experimental: as §2, §1

[3] = test system: CHO/ETAR cell membrane protein; assay: Lectin blotting of ETAR membrane sample; format: binding
Experimental: (§3) Membrane preparation was conducted as follows: Cells were cultured in five T175 flasks until confluency. Confluent cells were detached by applying 3 ml of EDTA solution onto the PBS washed cells. Following a 20-minute incubation at 37° C. and 5% CO2, cells were resuspended in 12 ml of starvation medium (standard medium without FCS), counted, and centrifuged in a Heraeus Megafuge 1.0R at 133 rcf for 4 minutes. All subsequent steps were carried out on ice and with ice cold solutions. After unification of all pellet fractions, hypotonic lysis buffer was added to the cells at a ratio of 1 ml per 5*10^7 cells. Additionally, protease inhibitor cocktail was added to 50 μl per 5*10^7 cells. Cells were homogenized with 30 strokes in a 5 ml potter on ice, centrifuged at 4° C. and 917 rcf for 10 minutes, and the supernatant was stored in an ultracentrifuge tube on ice. The pellet fraction was homogenized and centrifuged once again as described above. The supernatants of both procedures were unified and centrifuged at 4° C. and 100,000 rcf for 45 minutes in a Sorvall ultra-centrifuge. The supernatant of this centrifugation procedure was withdrawn and the pellet dissolved in 0.5 ml or 1.0 ml modified SDS PAGE loading buffer containing Tris-HCl, SDS, glycerol, but no β-mercapto-ethanol or dyes and stored in small aliquots of 50 μl at −20° C.
SDS-Page of membrane samples was conducted as follows: Discontinuous 12% polyacrylamide gels were prepared according to a standard protocol. Broad range marker and 25 μg membrane protein were mixed 1:1 with loading buffer and loaded five times onto a mini gel in alternating order. The gels were run at U=100 V for the first 20 minutes. Subsequently, voltage was increased to U=150 V. The run was aborted as soon as the pyronin G band reached the end of the gel. For coomassie staining, gels were put in coomassie staining solution on a shaker at low revolutions for 45 min. The staining solution was removed and the gel incubated with destaining solution for one to two hours, exchanging the solution several times until the desired contrast was obtained. […]

[4] = test system: CHO/PAR-2 cell membrane protein; assay: Lectin blotting of PAR-2 membrane sample; format: binding
Experimental: as §3
SDS-Page of membrane samples was conducted as follows: Discontinuous 12% polyacrylamide gels were prepared according to a standard protocol. Broad range marker and 25 μg membrane protein were mixed 1:1 with loading buffer and loaded five times onto a mini gel in alternating order. The gels were run at U=100 V for the first 20 minutes. Subsequently, voltage was increased to U=150 V. The run was aborted as soon as the pyronin G band reached the end of the gel. For coomassie staining, gels were put in coomassie staining solution on a shaker at low revolutions for 45 min. The staining solution was removed and the gel incubated with destaining solution for one to two hours, exchanging the solution several times until the desired contrast was obtained.
Blotting of membrane samples was conducted as follows: For blotting, 3 mm packs of Whatman papers were extensively soaked in one of the diverging blotting buffers, AB I, AB II, and CB, and a pile was assembled in a semi-dry Trans-Blot 3D system from Bio-Rad as depicted in the sketch of FIG. 2. Hybond nitrocellulose membrane was submerged in AB II prior to assembly. To smooth out any air bubbles from the pile, a Pasteur pipette was rolled several times over the top layer. The apparatus was closed and ran at U=25 V for 45 minutes. Then, the pile was disassembled, the membrane submerged in Ponceau S solution and gently swayed for 2 minutes. For destaining, ddH2O was substituted for the staining solution, and the membrane was briefly rinsed twice. After drying under ambient conditions, the marker bands were marked with a ballpoint-pen. The membrane was cut into slices each displaying one marker and one sample lane.
Probing of membrane samples was conducted as follows: For classical western blotting, membranes were blocked in PBS containing 5% low fat dried milk powder. They were placed on a rotating shaker at low revolutions for 1 hour. Subsequently, membranes were sealed in plastic bags with blocking solution additionally containing 1 μg/ml anti-PAR-2 antibody (1:400) or 0.5 μg/ml of anti-ETAR antibody (1:500), depending on the respective recombinant cell type used for the sample. […]

In the case of “succinylated Triticum vulgaris (wheat germ) agglutin [sWGA]”, the “Staining of CHO/ETAR” value (CHO/ETAR cells [1]) is reported as “cell surface”, the “Live cell staining of CHO/ETAR” value (CHO/ETAR cells [2]) is reported as “single spot formation continued fairly slowly” and the “Live cell staining of CHO/PAR-2” value (CHO/PAR-2 cells) is reported as “spot formation”. The “bands that stood out below 35 kDa” value ([3]; ETAR sample) was “five”, the “band at the same height as in the western (47 kDa, anti-ETAR)” value ([3]; biotinylated lectin 5 μg/ml) was “very faint band” and the “striking bands below 35 kDa” value ([4]; PAR-2 sample) was “at least nine”. For the same substance, the “band at the same height as the western band (55 kDa, anti-PAR-2)” value ([4]; biotinylated lectin 5 μg/ml) was “one at the same height as the western band; also recorded: intense band” and the “bands detected above 35 kDa” value ([4]; biotinylated lectin 5 μg/ml, exposure one to five minutes) was “two”.
